Reference: paper PMC11270681, “Synthesis and Systematic Investigation of Lepidiline A and Its Gold(I), Silver(I), and Copper(I) Complexes Using In Vitro Cancer Models and Multipotent Stem Cells” (ACS Omega, 2024)
Where “and” joins values, the source holds several entries; their conditions need not be identical. Equal entries are not always repeated.

Columns and labels:
[1] = Stability in serum-free culture medium by HPLC-UV; type: physicochemical; settings: for AUC (HPLC-UV), single measurements 1-5 / AUC (HPLC-UV), average: serum-free culture medium; for Stability in serum-free culture medium: HPLC-UV, observed 48 h
Experimental: Stability of the metal complexes in solution was measured in serum-free culture medium. The compounds were dissolved in DMSO right before the experiment. Solutions of Cu-LA and Ag-LA contained 1% final volume of DMSO, while Au-LA contained 30% DMSO. Samples were taken right after dilution, and after 1 h, 2 h, 4 h, 8 h, 16 h, 32 and 48 h, and measured by HPLC-UV.

[2] = tested on: T-47D; test: Cytotoxicity (PrestoBlue), breast cancer line; type: cell-based; settings: 72 h incubation
Experimental: (§1) OVCAR-3 (OVC-3) and OVCAR-8 (OVC-8) ovarian serous adenocarcinomas, IGROV-1 ovarian endometrioid adenocarcinoma, OVCAR-5 (OVC-5) upper gastrointestinal carcinoma, MDA-MB-231 breast adenocarcinoma, and MCF-7 and T-47D invasive breast carcinomas were purchased from the Developmental Therapeutic Program of the National Cancer Institute (NIH, USA) and were cultured in an RPMI medium (Thermo Fisher). Mes-Sa and Mes-Sa/Dx5 uterine sarcoma cell lines were purchased from American Type Culture Collection (ATCC) and were kept in DMEM (Thermo Fisher). Mes-Sa B1 was transfected with the human MDR1 gene, and Mes-Sa mCherry, Mes-Sa B1 mOrange, and Mes-Sa/Dx5 eGFP were engineered to stably express the respective fluorescent proteins previously.[51] Culture media for cancer cells were supplemented with 10% fetal bovine serum, 2 mM L-glutamine, and 100 units/mL penicillin and 100 μg/mL streptomycin (Thermo Fisher). The adipose tissue and bone marrow-derived mesenchymal stem cells (AD-MSC and BM-MSC) were described previously[37] and were kept in DMEM-F12 (Gibco) supplemented with 10% fetal bovine serum, L-glutamine (Thermo Fisher), 0.1% gentamicin (Gibco, 50 mg/mL), and 16 ng/mL fibroblast growth factor 2 (Peprotech). Cells were kept at 37 °C under 5% CO2 and were negative for mycoplasma infection.
(§2) Cytotoxicities of the nonfluorescent cancer cells were assessed with a PrestoBlue cell viability reagent (Thermo Fisher). Briefly, 2500 cells/well were seeded on 384-well plates; then, the next-day drugs were added. After 72 h of incubation, PrestoBlue was added in a 10% final concentration, and after an hour of additional incubation, plates were measured with a PerkinElmer EnSpire plate reader at 555 nm/585 nm excitation/emission wavelengths. Stem cells were seeded on 96-well plates at a density of 5000 cells/well, and the following day, drugs were added for 96 h of incubation; then, viability was assessed with 10% PrestoBlue diluted in PBS. Fluorescent cancer cells were admixed before seeding on 384-well plates at an 800 cells/well density each, thus altogether 2400 cells/well. Drugs were added the following day, and the intensity of the fluorescent proteins was measured after 144 h of incubation at the respective fluorescent channels (excitation/emission, eGFP: 485 nm/510 nm; mCherry: 585 nm/610 nm; mOrange: 545 nm/567 nm). pIC50 values were calculated by a custom program written by Judit Sessler in C#. IC50 values and standard deviation were calculated from average pIC50 values from at least 3 independent measurements.

[3] = tested on: MCF-7; test: Cytotoxicity (PrestoBlue), breast cancer line; type: cell-based; settings: MCF-7, 72 h incubation
Experimental: as §1, §2

[4] = tested on: MDA-MB-231; test: Cytotoxicity (PrestoBlue), breast cancer line; type: cell-based; settings: MDA-MB-231, 72 h incubation
Experimental: as §1, §2

[5] = tested on: Mes-Sa; test: Cytotoxicity, uterine sarcoma parental line; type: cell-based; settings: fluorescent protein intensity after 144 h
Experimental: as §1, §2

[6] = tested on: Bone marrow MSCs (BM-MSC); test: Cytotoxicity, range over bone marrow MSCs; type: cell-based; settings: BM-MSC and immortalized BM-MSC
Experimental: as §1, §2

[7] = tested on: Mes-Sa; test: H2DCFDA intracellular ROS production assay; type: cell-based; settings: 50 μM, 4 h incubation
Experimental: (§3) To assess intracellular ROS production, we used a H2DCFDA cellular ROS assay kit (ab113851, Abcam) according to the manufacturer’s instructions. Briefly, 20,000 cells were seeded on 96-well plates. On the following day, cells were washed, and H2DCFDA solution, prepared by avoiding direct light, was added for 45 min. Next, cells were washed, and 50 μM samples of test compounds were aspirated on the cells in a complete and phenol red-free medium (FluoroBrite, Thermo Fisher). At each hour, fluorescence of 2′,7′-dichlorofluorescein (DCF) was measured at 484 nm/535 nm excitation/emission wavelengths. Values were normalized to 0 h measurements. Values indicate at least 3 independent measurements.

[8] = tested on: T-47D; test: H2DCFDA intracellular ROS production assay; type: cell-based; settings: 50 μM, 4 h incubation
Experimental: as §3

[9] = tested on: MCF-7; test: H2DCFDA intracellular ROS production assay; type: cell-based; settings: MCF-7, 50 μM, 4 h incubation
Experimental: as §3

[10] = tested on: OVC-8; test: Cytotoxicity (PrestoBlue), ovarian cancer line; type: cell-based; settings: OVC-8, 72 h incubation
Experimental: as §1, §2

[11] = tested on: OVC-3; test: Cytotoxicity (PrestoBlue), ovarian cancer line; type: cell-based; settings: OVC-3, 72 h incubation
Experimental: as §1, §2

[12] = tested on: IGROV-1; test: Cytotoxicity (PrestoBlue), ovarian cancer line; type: cell-based; settings: IGROV-1, 72 h incubation
Experimental: as §1, §2

[13] = tested on: OVC-5; test: Cytotoxicity (PrestoBlue), upper gastrointestinal cancer line; type: cell-based; settings: for IC50: OVC-5, 72 h incubation, PrestoBlue
Experimental: as §1, §2

[14] = tested on: im. BM-MSC; test: Cytotoxicity (PrestoBlue), immortalized bone marrow MSC; type: cell-based; settings: 96 h incubation
Experimental: as §1, §2

[15] = tested on: Mes-Sa B1; test: Cytotoxicity, MDR1-transfected uterine sarcoma line; type: cell-based; settings: Mes-Sa B1 (MDR1 transfected, ABCB1 expressing), fluorescent protein intensity after 144 h
Experimental: as §1, §2

[16] = tested on: AD-MSC; test: Cytotoxicity (PrestoBlue), adipose-derived mesenchymal stem cells; type: cell-based; settings: 96 h incubation
Experimental: as §1, §2

[17] = tested on: BM-MSC; test: Cytotoxicity (PrestoBlue), bone marrow-derived mesenchymal stem cells; type: cell-based; settings: 96 h incubation
Experimental: as §1, §2

[18] = tested on: Mes-Sa/Dx5; test: Cytotoxicity, doxorubicin-selected MDR uterine sarcoma line; type: cell-based; settings: Mes-Sa/Dx5 (doxorubicin selected, ABCB1 expressing), fluorescent protein intensity after 144 h
Experimental: as §1, §2

[19] = tested on: HL-60 leukemia line; set-up: method as in PMID 34808062; settings: cited from earlier work
[20] = tested on: 3 ovarium cancer lines (IGROV-1, OVC-3, and OVC-8); test: Cytotoxicity, range over 3 ovarium cancer lines; type: cell-based; settings: IGROV-1, OVC-3, OVC-8
Experimental: as §1, §2

[21] = tested on: 3 breast cancer cell lines (MDA-MB-231, MCF-7 and T-47D); test: Cytotoxicity, range over 3 breast cancer cell lines; type: cell-based; settings: MDA-MB-231, MCF-7, T-47D
Experimental: as §1, §2

[22] = 0 h, Cu-LA, Ag-LA 1% DMSO, Au-LA 30% DMSO

Structure (SMILES)	AUC (HPLC-UV), single measurements 1-5 ([1]; 0 h)	AUC (HPLC-UV), average [1, 22]	AUC (HPLC-UV), average ([1]; 1 h)	AUC (HPLC-UV), single measurements 1-5 ([1]; 1 h)	AUC (HPLC-UV), average ([1]; 2 h)	AUC (HPLC-UV), single measurements 1-5 ([1]; 2 h)	IC50 [2]	IC50 [3]	IC50 [4]	IC50 [5]	IC50 [6]	IC50 [10]	IC50 [11]	IC50 [12]	IC50 [13]	IC50 [14]	IC50 [15]	IC50 [16]	IC50 [17]	IC50 [18]	also measured
Cc1c(C)n(Cc2ccccc2)[c](=[Cu][Cl])n1Cc1ccccc1 [Cu-LA, Chloro-(1,3-dibenzyl-4,5-dimethyl-imidazol-2-ylidene)copper]	1030 and 1011 and 1021 and 1023 and 1047	1026	1019	1022 and 1016 and 1021 and 1017	1022	1021 and 1020 and 1022 and 1023	24.8 µM	41.3 µM	62.5 µM	18.5 µM	48 to 98 µM	67.6 µM	58.5 µM	72.9 µM	104 µM	75.4 µM	> 100 µM	23.7 µM	98.3 µM	76.6 µM	AUC (HPLC-UV), average ([1]; 4 h): 1042; AUC (HPLC-UV), single measurements 1-5 ([1]; 4 h): 1040 and 1041 and 1043 and 1044; AUC (HPLC-UV), average ([1]; 8 h): 1044; AUC (HPLC-UV), single measurements 1-5 ([1]; 8 h): 1045 and 1042 and 1044 and 1046; AUC (HPLC-UV), average ([1]; 16 h): 1042; AUC (HPLC-UV), single measurements 1-5 ([1]; 16 h): 1039 and 1042 and 1046; AUC (HPLC-UV), average ([1]; 32 h): 1038; AUC (HPLC-UV), single measurements 1-5 ([1]; 32 h): 1030 and 1041 and 1038 and 1042 and 1039; AUC (HPLC-UV), average ([1]; 48 h): 1039; AUC (HPLC-UV), single measurements 1-5 ([1]; 48 h): 1038 and 1039 and 1040; Stability in serum-free culture medium [1]: stable; Higher intracellular ROS formation ([7]; vs medium): 2–3 fold; Higher intracellular ROS formation ([8]; vs medium): 2–3 fold; Higher intracellular ROS formation ([9]; vs medium): 2–3 fold
COc1cccc(C[n+]2c(C)c(C)n(Cc3ccccc3)c2C)c1 [lepidiline D]	–	–	–	–	–	–	–	–	–	–	–	–	–	–	–	–	–	–	–	–	IC50 [19]: 1.1 µM
Cc1c(C)n(Cc2ccccc2)[c](=[Ag][Cl])n1Cc1ccccc1 [Ag-LA, Chloro-(1,3-dibenzyl-4,5-dimethyl-imidazol-2-ylidene)silver]	898 and 911 and 926 and 921 and 877	907	922	923 and 921 and 920	923	922 and 921 and 923 and 928	5.83 µM	10.9 µM	12 µM	7.9 µM	5.7 to 15.7 µM	17.4 µM	16.3 µM	15 µM	40.7 µM	13.6 µM	20.5 µM	15.6 µM	15.7 µM	12 µM	IC50 [20]: 10.5 to 17.4 µM; AUC (HPLC-UV), average ([1]; 4 h): 924; AUC (HPLC-UV), single measurements 1-5 ([1]; 4 h): 921 and 925 and 927 and 920 and 928; AUC (HPLC-UV), average ([1]; 8 h): 923; AUC (HPLC-UV), single measurements 1-5 ([1]; 8 h): 922 and 924 and 923; AUC (HPLC-UV), average ([1]; 16 h): 922; AUC (HPLC-UV), single measurements 1-5 ([1]; 16 h): 921 and 922; AUC (HPLC-UV), average ([1]; 32 h): 925; AUC (HPLC-UV), single measurements 1-5 ([1]; 32 h): 925 and 926 and 924; AUC (HPLC-UV), average ([1]; 48 h): 921; AUC (HPLC-UV), single measurements 1-5 ([1]; 48 h): 917 and 922 and 920; Stability in serum-free culture medium [1]: stable; IC50 [21]: 5.8 to 12 µM; More ROS compared to the medium [7]: ~50%; Intracellular ROS production compared to the medium [8]: ROS was not elevated; More ROS compared to the medium [9]: ~30%; Lower susceptibility of OVC-5 compared to the ovarian cancer lines ([13]; OVC-5 vs ovarian cancer lines): 2.5 fold
COc1cc([C@@H]2c3cc4c(cc3[C@@H](O[C@@H]3O[C@@H]5CO[C@@H](C)O[C@H]5[C@H](O)[C@H]3O)[C@H]3COC(=O)[C@H]23)OCO4)cc(OC)c1O [Etoposide, etoposide, reference compound]	–	–	–	–	–	–	–	–	–	–	–	–	–	–	–	–	–	–	–	–	IC50 ([5]; Homo sapiens): 0.26 µM; IC50 ([15]; Homo sapiens): 1.17 µM; IC50 ([18]; Homo sapiens, MES-SA/Dx5, 144 h): 1.7 µM
N.N.[Cl][Pt][Cl] [Cisplatin, cisplatin, reference compound]	–	–	–	–	–	–	5.99 µM	2.71 µM	2.17 µM	1.84 µM	2 to 2.3 µM	6.34 µM	6.64 µM	2.19 µM	7 µM	1.97 µM	2.09 µM	16.7 µM	2.32 µM	4.71 µM	IC50 [21]: 2.2 to 6 µM
